pIC50: −log10 of the molar value.
System: Plasmodium berghei
Experiment: Luciferase/luciferin-expressing antifolate-resistant parasites were used to infect a culture of HepG2 cells that were pre-incubated with compounds. Infected hepatocytes emit light due to the luciferase reaction. Assay results are presented as the percent inhibition of light emission compared to control. […]
Type: functional
Settings: sporozoite; for IC90: read-out: LUCIFERASE INFECTION ASSAY - IC90

## CCc1ccc(C2=NN=C(Nc3cccc(S(=O)(=O)N(C)C)c3)SC2)cc1
FFLUC_HILL_SLOPE 1.2, FFLUC_R_SQUARED 0.399, HEPG2TOX_HILL_SLOPE 10.6, HEPG2TOX_R_SQUARED 0.97, PBLUC_HILL_SLOPE 5.57, PBLUC_R_SQUARED 0.702, read-out: LUCIFERASE INFECTION ASSAY - IC50
  pIC50: 5.17
  IC90: 9.95 µM

## CC(C)(C)c1ccc(C(=O)NCCOc2ccccc2F)cc1
FFLUC_HILL_SLOPE 1.22, FFLUC_R_SQUARED 0.498, PBLUC_HILL_SLOPE 0.635, PBLUC_R_SQUARED 0.572, read-out: LUCIFERASE INFECTION ASSAY - IC50
  pIC50: 7.70
  IC90: 0.642 µM

## O=C1C=CC(=O)N1c1ccc(Oc2ccccc2)cc1
FFLUC_HILL_SLOPE 1.06, FFLUC_R_SQUARED 0.54, read-out: LUCIFERASE INFECTION ASSAY - IC50
  pIC50: < 4.91
  IC90: > 12.4 µM

## O=[N+]([O-])c1ccccc1NC(=S)N/N=C/c1ccc(O)c(O)c1
FFLUC_HILL_SLOPE 1.09, FFLUC_R_SQUARED 0.362, HEPG2TOX_HILL_SLOPE 7.32, HEPG2TOX_R_SQUARED 0.0511, PBLUC_HILL_SLOPE 3.36, PBLUC_R_SQUARED 0.569, read-out: LUCIFERASE INFECTION ASSAY - IC50
  pIC50: 5.36
  IC90: 8.44 µM

## Cc1ccc(OC(=O)c2ccc(C(C)(C)C)cc2)c(NC(=O)c2ccc(C(C)(C)C)cc2)c1
FFLUC_HILL_SLOPE 1.14, FFLUC_R_SQUARED 0.535, PBLUC_HILL_SLOPE 1.18, PBLUC_R_SQUARED 0.716, read-out: LUCIFERASE INFECTION ASSAY - IC50
  pIC50: 5.84
  IC90: > 7.44 µM

## C/N=c1\scc(-c2ccc(C)c(C)c2)n1/N=C/c1ccc[nH]1
FFLUC_HILL_SLOPE 1.19, FFLUC_R_SQUARED 0.95, read-out: LUCIFERASE INFECTION ASSAY - IC50
  pIC50: < 5.00
  IC90: > 10 µM

## O=C1C(=C2SCCCS2)CC/C1=C\c1ccccc1
FFLUC_HILL_SLOPE 1.05, FFLUC_R_SQUARED 0.81, PBLUC_HILL_SLOPE 0.851, PBLUC_R_SQUARED 0.668, read-out: LUCIFERASE INFECTION ASSAY - IC50
  pIC50: 6.36
  IC90: 5.73 µM

## Nc1nn(C(=O)c2csc3ccccc23)c2ccccc12
FFLUC_HILL_SLOPE 1.19, FFLUC_R_SQUARED 0.595, HEPG2TOX_HILL_SLOPE 0.0302, HEPG2TOX_R_SQUARED 0.0617, PBLUC_HILL_SLOPE 0.566, PBLUC_R_SQUARED 0.73, read-out: LUCIFERASE INFECTION ASSAY - IC50
  pIC50: 6.44
  IC90: > 10 µM

## N#Cc1c(N)nc2c(c1N)C(C(C#N)C#N)c1cc(Br)ccc1O2 (stereo unspecified)
FFLUC_HILL_SLOPE 1.21, FFLUC_R_SQUARED 0.243, read-out: LUCIFERASE INFECTION ASSAY - IC50
  pIC50: < 5.06
  IC90: > 8.66 µM

## CCC(C)NC(=O)c1c(NC(=O)C2CCCC2)nc2ccc(C)cn12 (stereo unspecified)
FFLUC_HILL_SLOPE 1.17, FFLUC_R_SQUARED 0.173, read-out: LUCIFERASE INFECTION ASSAY - IC50
  pIC50: < 5.02
  IC90: > 9.64 µM

## CCOC(=O)c1c(C)[nH]c(-c2csc(/C(C#N)=C/c3ccc[nH]3)n2)c1C
FFLUC_HILL_SLOPE 1.13, FFLUC_R_SQUARED 0.248, HEPG2TOX_HILL_SLOPE 11.9, HEPG2TOX_R_SQUARED 0.816, PBLUC_HILL_SLOPE 50.7, PBLUC_R_SQUARED 0.357, read-out: LUCIFERASE INFECTION ASSAY - IC50
  pIC50: 5.02
  IC90: > 10 µM

## Cc1c(-c2nc3ncc(Br)cc3[nH]2)cc(C#N)n1C
FFLUC_HILL_SLOPE 1.06, FFLUC_R_SQUARED 0.775, HEPG2TOX_HILL_SLOPE 12.7, HEPG2TOX_R_SQUARED 0.745, PBLUC_HILL_SLOPE 2.08, PBLUC_R_SQUARED 0.626, read-out: LUCIFERASE INFECTION ASSAY - IC50
  pIC50: 5.46
  IC90: 9.96 µM

## N#Cc1c(/N=C/c2ccccc2C(F)(F)F)sc2c1CCCCC2
FFLUC_HILL_SLOPE 1.19, FFLUC_R_SQUARED 0.84, PBLUC_HILL_SLOPE 1.29, PBLUC_R_SQUARED 0.776, read-out: LUCIFERASE INFECTION ASSAY - IC50
  pIC50: 5.87
  IC90: 7.41 µM

## CC(C)(C)C1=CSC(=C2Sc3ccccc3C2=O)N1
FFLUC_HILL_SLOPE 1.22, FFLUC_R_SQUARED 0.112, read-out: LUCIFERASE INFECTION ASSAY - IC50
  pIC50: < 4.94
  IC90: > 11.4 µM

## CCCn1c(SCC(=O)NCC23CC4CC(CC(C4)C2)C3)nc2cc(Cl)ccc2c1=O
FFLUC_HILL_SLOPE 1.09, FFLUC_R_SQUARED 0.071, read-out: LUCIFERASE INFECTION ASSAY - IC50
  pIC50: < 5.00
  IC90: > 10 µM

## COc1ccc(NS(=O)(=O)c2c(C)c(C)c(C)c(C)c2C)cc1O
FFLUC_HILL_SLOPE 1.05, FFLUC_R_SQUARED 0.782, HEPG2TOX_HILL_SLOPE 1.26, HEPG2TOX_R_SQUARED 0.985, PBLUC_HILL_SLOPE 23, PBLUC_R_SQUARED 0.188, read-out: LUCIFERASE INFECTION ASSAY - IC50
  pIC50: 5.46
  IC90: 3.8 µM

## CCN(CC)c1ccc(S(=O)(=O)N2CCCCC2)cc1NC(=O)c1ccc2c(c1)nnn2CC
FFLUC_HILL_SLOPE 1.06, FFLUC_R_SQUARED 0.385, read-out: LUCIFERASE INFECTION ASSAY - IC50
  pIC50: < 5.00
  IC90: > 10 µM

## NS(=O)(=O)c1ccc(CCNc2nn3c(-c4cccc(Cl)c4)cnc3s2)cc1
FFLUC_HILL_SLOPE 1.14, FFLUC_R_SQUARED 0.295, read-out: LUCIFERASE INFECTION ASSAY - IC50
  pIC50: < 5.12
  IC90: > 7.6 µM

## CC(C)(C)c1ccc(NC(=O)c2cnccn2)cc1
FFLUC_HILL_SLOPE 1.15, FFLUC_R_SQUARED 0.77, PBLUC_HILL_SLOPE 0.39, PBLUC_R_SQUARED 0.583, read-out: LUCIFERASE INFECTION ASSAY - IC50
  pIC50: 7.53
  IC90: 8.29 µM

## CCOC(=O)Cn1c(=O)c2c3c(sc2n(Cc2ccccc2)c1=O)CCCC3
FFLUC_HILL_SLOPE 1.15, FFLUC_R_SQUARED 0.544, PBLUC_HILL_SLOPE 1.19, PBLUC_R_SQUARED 0.498, read-out: LUCIFERASE INFECTION ASSAY - IC50
  pIC50: 5.41
  IC90: > 8.28 µM

## CCCCCCCCCCCc1nnc(SCc2ccccc2)n1-c1ccccc1C(F)(F)F
FFLUC_HILL_SLOPE 1.21, FFLUC_R_SQUARED 0.637, read-out: LUCIFERASE INFECTION ASSAY - IC50
  pIC50: < 5.17
  IC90: > 6.74 µM

## O=C1C=CC(=O)N1c1cc(F)ccc1F
FFLUC_HILL_SLOPE 1.16, FFLUC_R_SQUARED 0.312, PBLUC_HILL_SLOPE 23.3, PBLUC_R_SQUARED 0.503, read-out: LUCIFERASE INFECTION ASSAY - IC50
  pIC50: 4.82
  IC90: > 15.8 µM

## Cc1cc(/C=C/C(=O)Nc2ccc(S(=O)(=O)NC3=NCCCCC3)cc2)c(C)n1-c1ccccc1
FFLUC_HILL_SLOPE 1.16, FFLUC_R_SQUARED 0.166, PBLUC_HILL_SLOPE 1.89, PBLUC_R_SQUARED 0.7, read-out: LUCIFERASE INFECTION ASSAY - IC50
  pIC50: 5.70
  IC90: 6.38 µM

## Cc1csc(C(C#N)C(=O)CSc2nc(-c3ccc(Br)cc3)nc3ccccc23)n1 (stereo unspecified)
FFLUC_HILL_SLOPE 1.1, FFLUC_R_SQUARED 0.67, read-out: LUCIFERASE INFECTION ASSAY - IC50
  pIC50: < 5.00
  IC90: > 10 µM

## Cc1cc(C(=O)COC(=O)c2ccccc2N/C=C/C(=O)C(F)(F)F)c(C)n1CC1CCCO1 (stereo unspecified)
FFLUC_HILL_SLOPE 1.17, FFLUC_R_SQUARED 0.844, PBLUC_HILL_SLOPE 1.67, PBLUC_R_SQUARED 0.404, read-out: LUCIFERASE INFECTION ASSAY - IC50
  pIC50: 5.47
  IC90: > 10 µM

## CCOc1cc(C(=O)Oc2cccc(Cl)c2Cl)cc(OCC)c1OCC
FFLUC_HILL_SLOPE 1.16, FFLUC_R_SQUARED 0.617, read-out: LUCIFERASE INFECTION ASSAY - IC50
  pIC50: < 5.00
  IC90: > 10 µM

## CC(C)Nc1cc(C(=O)Nc2ccccc2)ncn1
FFLUC_HILL_SLOPE 1.2, FFLUC_R_SQUARED 0.891, PBLUC_HILL_SLOPE 0.483, PBLUC_R_SQUARED 0.815, read-out: LUCIFERASE INFECTION ASSAY - IC50
  pIC50: 6.71
  IC90: > 12.9 µM

## c1ccc(Nc2nc(-c3ccc4c(c3)OCCO4)cs2)nc1
FFLUC_HILL_SLOPE 1.22, FFLUC_R_SQUARED 0.822, PBLUC_HILL_SLOPE 0.789, PBLUC_R_SQUARED 0.792, read-out: LUCIFERASE INFECTION ASSAY - IC50
  pIC50: 6.80
  IC90: 2.55 µM

## CC(C)n1ncc2cc(C(=O)Nc3nc4c(s3)CCCC4)cnc21
FFLUC_HILL_SLOPE 1.2, FFLUC_R_SQUARED 0.643, HEPG2TOX_HILL_SLOPE 0.617, HEPG2TOX_R_SQUARED 0.917, PBLUC_HILL_SLOPE 0.702, PBLUC_R_SQUARED 0.926, read-out: LUCIFERASE INFECTION ASSAY - IC50
  pIC50: 7.53
  IC90: 0.68 µM

## CN(Cc1ccc(C(F)(F)F)cc1)C(=O)c1cc(Br)ccc1O
FFLUC_HILL_SLOPE 1.16, FFLUC_R_SQUARED 0.0567, read-out: LUCIFERASE INFECTION ASSAY - IC50
  pIC50: < 5.00
  IC90: > 10 µM

## O=S(=O)(Nc1csc(C(F)(F)F)c1-c1ccccc1)c1cc(Cl)c(Cl)s1
FFLUC_HILL_SLOPE 1.1, FFLUC_R_SQUARED 0.492, HEPG2TOX_HILL_SLOPE 2.51, HEPG2TOX_R_SQUARED 0.937, PBLUC_HILL_SLOPE 4.37, PBLUC_R_SQUARED 0.518, read-out: LUCIFERASE INFECTION ASSAY - IC50
  pIC50: 5.38
  IC90: 6.91 µM

## Fc1ccccc1-c1cnn2c(NCc3cccs3)ccnc12
FFLUC_HILL_SLOPE 1.17, FFLUC_R_SQUARED 0.682, PBLUC_HILL_SLOPE 0.51, PBLUC_R_SQUARED 0.639, read-out: LUCIFERASE INFECTION ASSAY - IC50
  pIC50: 6.62
  IC90: > 10.2 µM

## O=C(Nc1cc(Cl)cc(Cl)c1)Nc1cc(-c2cccs2)n[nH]1
FFLUC_HILL_SLOPE 1.15, FFLUC_R_SQUARED 0.0672, PBLUC_HILL_SLOPE 14.1, PBLUC_R_SQUARED 0.219, read-out: LUCIFERASE INFECTION ASSAY - IC50
  pIC50: 5.10
  IC90: 9.3 µM
